Publication PMC8480782, “Efficient Dimerization Disruption of Leishmania infantum Trypanothione Reductase by Triazole-phenyl-thiazoles” (Journal of Medicinal Chemistry, 2021)
Where two headings read alike, the source gives them in different places.

Columns and labels:
[1] = tested on: THP-1 monocyte-derived macrophages; assay: Cytotoxicity in THP-1 monocyte-derived macrophages (LDH activity); format: cell-based, human; conditions: Homo sapiens, THP-1; LDH activity
Method: THP-1 cells were grown in RPMI-1640 medium (Gibco, Leiden, The Netherlands) supplemented with 10% heat-inactivated FCS, antibiotics, 10 mM HEPES, 2 mM glutamine, and 1 mM sodium pyruvate, pH 7.2, at 37 °C and 5% CO2.
(§1) THP-1 monocytes were seeded in a 48-well plate at a concentration of 5 × 10^5 cells/mL (250 μL/well) in RPMI complete medium supplemented with phorbol 12-myristate 13-acetate (PMA) (100 ng/mL). Differentiation of THP-1 monocytes to macrophages was allowed for 24 h at 37 °C and 5% CO2. THP-1-derived macrophages were infected with GFP-expressing axenic amastigotes at 5 × 10^6 parasites/mL in RPMI complete medium for 24 h (250 μL/well). Extracellular amastigotes were washed twice with PBS. The remaining extracellular parasites were challenged for 24 h with THP-1 medium supplemented with 10% horse serum (Gibco) instead of FCS. Cells were washed twice with PBS, and treatments were performed in 250 μL of fresh RPMI medium supplemented with 10% horse serum for 72 h at 37 °C and 5% CO2. Afterward, treatments were removed by two PBS washes. Lysis of infected cells was performed with 120 μL of SDS 0.005% (w/v) in PBS. After a 30 min incubation at 37 °C, lysis was stopped by adding RPMI complete medium with PI at 20 μg/mL (120 μL/well). The lysates were transferred to a 96-well plate (200 μL/well), and the GFP^+ amastigotes extracted from the infected cells were acquired by a Beckman Coulter FC500 flow cytometer. Each sample (100 μL) was acquired for 20 s.
Cytotoxicity of THP-1 infected macrophages was determined using an in-house developed lactate dehydrogenase (LDH) activity assay. LDH activity assays from the remaining cell lysates (100 μL/well) were carried out at 37 °C in 250 μL of Tris/HCl buffer (pH 8.9, 50 mM) containing DL-lactate (840 mM), NAD^+ (450 μM), 1-methoxyphenazine methosulfate (45 μM), and nitro blue tetrazolium chloride (40 μM). The color intensity of the generated formazan dye was monitored at 570 nm using an EnSpire Multimode Plate Reader (PerkinElmer, Waltham, MA). CC50 values were calculated using a nonlinear regression model with GraFit 6 software (Erithacus, Horley, Surrey, U.K.).

[2] = tested on: L. infantum intracellular amastigotes; assay: Leishmanicidal activity in amastigote-infected THP-1 monocyte-derived macrophages; format: cell-based, Leishmania infantum; conditions: Leishmania infantum, THP-1, 72 h
Method: as §1
The relative number of GFP^+ intracellular amastigotes per cell in each sample was estimated after the division of the total number of GFP+ amastigotes by the LDH activity value of the sample. Results were normalized to the vehicle-treated controls. EC50 values of intracellular amastigotes were calculated using a nonlinear regression model with GraFit 6 software (Erithacus, Horley, Surrey, U.K.). All of the assays were conducted in at least three independent experiments.

TbTryR = biological target: T1, TbTryR (Trypanosoma brucei brucei, UniProt P39051); assay: TryR oxidoreductase activity, DTNB-coupled assay (TbTryR); format: biochemical; conditions: read-out: IC50, oxidoreductase activity of TbTryR
T1 construct: HIS; made in house; host or cells: E. coli
T1 sequence (P39051 whole entry): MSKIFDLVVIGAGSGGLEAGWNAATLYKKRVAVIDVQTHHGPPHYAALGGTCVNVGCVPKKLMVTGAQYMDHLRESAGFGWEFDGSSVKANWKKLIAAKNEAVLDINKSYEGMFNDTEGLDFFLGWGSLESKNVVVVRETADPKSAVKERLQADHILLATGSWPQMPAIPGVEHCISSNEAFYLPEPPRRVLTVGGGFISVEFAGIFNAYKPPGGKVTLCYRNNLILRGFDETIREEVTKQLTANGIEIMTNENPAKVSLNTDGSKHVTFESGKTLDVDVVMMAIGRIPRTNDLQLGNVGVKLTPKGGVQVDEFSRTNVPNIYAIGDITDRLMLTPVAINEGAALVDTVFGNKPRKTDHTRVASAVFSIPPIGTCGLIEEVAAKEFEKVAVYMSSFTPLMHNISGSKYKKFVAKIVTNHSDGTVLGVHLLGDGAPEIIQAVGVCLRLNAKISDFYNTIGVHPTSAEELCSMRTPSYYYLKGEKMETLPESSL
Source text: (§2) The DNA coding sequences for Homo sapiens GR, T. brucei TryR, and T. congolense TryR were polymerase chain reaction (PCR)-amplified and cloned in the pRSETA plasmid. The DNA coding for hGR (transcript variant 1; NCBI Reference Sequence: NM_000637.5) was purchased from GeneScript. Genomic DNA from T. congolense parasites was kindly provided by Dr. Stefan Magez (University of Vrije, Brussels). Genomic DNA from the T. brucei S16 cell line was kindly provided by José M. Pérez-Victoria. Instituto de Parasitología y Biomedicina “López—Neyra” CSIC. HIS-tagged recombinant T. brucei and T. congolense TryRs (TbTryR and TcoTryR, respectively) were purified from E. coli as already explained for LiTryR.
(§3) TryR oxidoreductase activity was determined spectrophotometrically using a modified version of the DTNB-coupled assay described by Hamilton et al.[52] Briefly, reactions were carried out at 26 °C in 250 μL of N-(2-hydroxyethyl)piperazine-N′-ethanesulfonic acid (HEPES) buffer (pH 7.5, 40 mM) containing ethylenediaminetetraacetic acid (EDTA) (1 mM), NADP^+ (30 μM), DTNB (25 μM), TS2 (1 μM), NADPH (150 μM), glycerol (0.02%), DMSO (1.75%), and recombinant TryR (7 nM). […] Reactions were started by addition of a mixture of NADPH and TS2.
(§4) TryR oxidoreductase activity was monitored at 26 °C by an increase in absorbance at 412 nm in an EnSpire Multimode Plate Reader (PerkinElmer, Waltham, MA). […] (TNB) concentration was obtained by multiplying the absorbance values by 100 (50 μM TNB generates 0.5 arbitrary units of absorbance at 412 nm). In this DTNB-coupled assay, one molecule of T(SH)2 reduces one molecule of DTNB, producing two TNB molecules. All of the assays were conducted in at least three independent experiments. Data were analyzed using a nonlinear regression model with GraFit 6 software (Erithacus, Horley, Surrey, U.K.).

TcoTryR = biological target: T2, TcoTryR (Trypanosoma congolense, UniProt P13110); assay: TryR oxidoreductase activity, DTNB-coupled assay (TcoTryR); format: biochemical
T2 construct: HIS; made in house; host or cells: E. coli
T2 sequence (P13110 whole entry): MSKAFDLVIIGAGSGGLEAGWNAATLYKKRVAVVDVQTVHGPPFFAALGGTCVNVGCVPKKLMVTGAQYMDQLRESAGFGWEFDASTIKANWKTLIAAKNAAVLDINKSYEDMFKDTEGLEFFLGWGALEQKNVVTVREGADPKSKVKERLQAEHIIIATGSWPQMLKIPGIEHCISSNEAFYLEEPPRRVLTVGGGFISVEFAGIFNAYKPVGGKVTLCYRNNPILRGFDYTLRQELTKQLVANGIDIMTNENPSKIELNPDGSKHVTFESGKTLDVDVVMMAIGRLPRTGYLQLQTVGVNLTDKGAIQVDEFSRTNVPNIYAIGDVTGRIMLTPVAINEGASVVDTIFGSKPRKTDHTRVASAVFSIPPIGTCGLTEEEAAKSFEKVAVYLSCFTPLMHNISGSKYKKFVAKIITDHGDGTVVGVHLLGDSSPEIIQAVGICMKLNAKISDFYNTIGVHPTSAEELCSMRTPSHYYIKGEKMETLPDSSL
Source text: as §2, §3, §4

[3] = tested on: L. infantum promastigotes; assay: Leishmanicidal activity on promastigotes (PI exclusion, flow cytometry); format: cell-based, Leishmania infantum; conditions: for EC50: Leishmania infantum, 24 h at 26 °C, read-out: EC50 promastigotes
Method: (§5) L. infantum promastigotes (MCAN/ES/89/IPZ229/1/89) were grown in Roswell Park Memorial Institute (RPMI)-1640 medium (Sigma-Aldrich, St. Louis, MO) supplemented with 10% heat-inactivated fetal calf serum (FCS), antibiotics, and 25 mM HEPES (pH 7.2) at 26 °C. L. infantum axenic amastigotes (MCAN/ES/89/IPZ229/1/89) were grown in M199 medium (Invitrogen, Leiden, The Netherlands) supplemented with 10% heat-inactivated FCS, 1 g/L β-alanine, 100 mg/L L-asparagine, 200 mg/L sucrose, 50 mg/L sodium pyruvate, 320 mg/L malic acid, 40 mg/L fumaric acid, 70 mg/L succinic acid, 200 mg/L α-ketoglutaric acid, 300 mg/L citric acid, 1.1 g/L sodium bicarbonate, 5 g/L morpholineethanesulfonic acid (MES), 0.4 mg/L hemin, and 10 mg/L gentamicine, pH 5.4, at 37 °C.
(§6) Drug treatment of L. infantum promastigotes was performed during the logarithmic growth phase at a concentration of 2 × 10^6 parasites/mL at 26 °C for 24 h. […] EC50 was evaluated by flow cytometry by the propidium iodide (PI) exclusion method. After selection of the parasite population based on their forward scatter (FSC) and side scatter (SSC) values, live and dead parasite cells were identified by their permeability to PI. All of the assays were conducted in triplicate in at least three independent experiments. Data were analyzed using a nonlinear regression model with GraFit 6 software (Erithacus, Horley, Surrey, U.K.).

[4] = tested on: L. infantum axenic amastigotes; assay: Leishmanicidal activity on axenic amastigotes (PI exclusion, flow cytometry); format: cell-based, Leishmania infantum; conditions: for EC50: Leishmania infantum, axenic amastigotes, 24 h at 37 °C, read-out: EC50 amastigotes
Method: as §5
Axenization was performed by diluting 0.5 mL of a 7-day stationary phase culture of L. infantum promastigotes (2–3 × 10^7 parasites/mL) in 4.5 mL of amastigotes medium and incubating the culture at 37 °C for 2 or 3 days. L. infantum axenic amastigotes apparition was followed by phase-contrast microscopy using an Eclipse Ti inverted microscope (Nikon, Tokyo, Japan).
as §6

HepG2 cells = assay: Cellular toxicity, crystal violet assay; format: cell-based; conditions: Homo sapiens, HepG2; 24 h, crystal violet method; read-out: EC50 HepG2
Method: Liver hepatocellular carcinoma HepG2 cells were grown in Dulbecco’s modified Eagle’s medium (DMEM) (Sigma-Aldrich, St. Louis, MO) with 10% heat-inactivated FCS, antibiotics, and 10 mM HEPES.
Drug treatment of liver hepatocellular carcinoma HepG2 cells was performed at a concentration of 10^5 cells/mL at 37 °C and 5% CO2 for 24 h. EC50 was evaluated by the crystal violet assay. Briefly, cells were washed with phosphate-buffered saline (PBS) and stained with 200 μL of crystal violet solution (0.2% crystal violet, 2% ethanol) for 10 min at room temperature. Next, the plates were washed twice with tap water and allowed to dry. The stained cells were solubilized with 400 μL of 1% sodium dodecyl sulfate (SDS), and the color intensity was quantified at 570 nm using an EnSpire Multimode Plate Reader (PerkinElmer, Waltham, MA). All of the assays were conducted in triplicate in at least three independent experiments. Data were analyzed using a nonlinear regression model with GraFit 6 software (Erithacus, Horley, Surrey, U.K.).

LiTryR dimer = biological target: T3, LiTryR dimer (Leishmania infantum, UniProt A4HSF7); assay: biochemical; conditions: 400 nM LiTryR, 16 h at 37 °C; read-out: IC50^dim, LiTryR monomer displacement (dimer quantitation ELISA)
T3 construct: made in house; host or cells: E. coli BL21 (DE3) Rossetta (co-transformed with both plasmids)
T3 sequence (A4HSF7 1-491): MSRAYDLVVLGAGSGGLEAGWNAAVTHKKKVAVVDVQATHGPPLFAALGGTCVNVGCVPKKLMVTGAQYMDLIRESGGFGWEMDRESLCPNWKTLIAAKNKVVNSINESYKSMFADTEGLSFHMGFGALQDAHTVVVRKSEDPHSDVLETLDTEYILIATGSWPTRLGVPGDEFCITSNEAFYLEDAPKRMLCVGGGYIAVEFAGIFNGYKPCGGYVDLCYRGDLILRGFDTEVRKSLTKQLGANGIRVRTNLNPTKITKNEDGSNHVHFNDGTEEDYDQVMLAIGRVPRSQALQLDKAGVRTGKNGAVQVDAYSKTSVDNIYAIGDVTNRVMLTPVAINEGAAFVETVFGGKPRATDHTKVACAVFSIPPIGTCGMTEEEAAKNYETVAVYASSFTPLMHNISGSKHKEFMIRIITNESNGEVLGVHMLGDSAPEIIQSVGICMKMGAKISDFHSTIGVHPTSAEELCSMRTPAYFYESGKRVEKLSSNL
Method: The stability of the LiTryR dimeric form in the presence of 1,2,3-triazole-phenyl-thiazole-based compounds was evaluated using the novel enzyme-linked immunosorbent assay (ELISA) developed in our laboratory.[25] […] Next, the different solutions were centrifuged at 18 000g for 15 min at room temperature. The supernatants (200 μL/well) were added to the α-FLAG-coated plates (Sigma-Aldrich, St. Louis, MO) and incubated for 30 min at 37 °C with agitation in a humid atmosphere. The plates were washed five times with TTBS buffer (2 mM Tris, pH 7.6, 138 mM NaCl, and 0.1% Tween-20) and incubated with diluted monoclonal α-HIS horseradish peroxidase (HRP)-conjugated antibody (200 μL, 1:50 000, Abcam, Cambridge, U.K.) in fatty acid- and essentially globulin-free bovine serum albumin (BSA) (5%) prepared in TTBS buffer for 1 h at room temperature. The plates were washed five times, and o-phenylenediamine dihydrochloride (OPD) substrate prepared according to the manufacturer’s instructions was added. The enzymatic reaction was stopped after 5 min with H2SO4 (100 μL, […]), and the absorbances were measured at 490 nm in an EnSpire Multimode Plate Reader (PerkinElmer, Waltham, MA). All of the assays were conducted in triplicate in at least three independent experiments. Data were analyzed using a nonlinear regression model with GraFit 6 software (Erithacus, Horley, Surrey, U.K.).

LiTryR = biological target: T4, LiTryR (Leishmania infantum, UniProt A4HSF7); assay: biochemical; format: biochemical; conditions: LiTryR; 1 μM TS2; maximum assayed 75 μM; read-out: IC50^act, TryR oxidoreductase activity
T4 construct: HIS (N); made in house; host or cells: E. coli BL21 (DE3) Rossetta
T4 sequence (A4HSF7 1-491): as above
Method: A concentration of 1 μM TS2 was used for this initial screening. This low substrate concentration is sufficient for comparison of compound inhibitory activity in the oxidoreductase assay.
Recombinant L. infantum TryR (LiTryR) HIS-tagged and HIS-FLAG-tagged versions were used for all LiTryR oxidoreductase activity and dimer quantitation assays. These LiTryR versions were purified from Escherichia coli as previously described.[25] Briefly, pRSETA-HIS-LiTryR construct alone or in combination with the pET24a-FLAG-LiTryR construct was transformed into BL21 (DE3) Rossetta E. coli strain. An overnight E. coli culture grown at 37 °C in Luria–Bertani (LB) medium with the appropriate antibiotics and vigorous shaking was diluted (1:100) in the same medium and allowed to grow in the same conditions until the OD600 was 0.5. Then, LiTryR expression was induced by addition of 1 mM isopropyl-β-D-1-thiogalactopyranoside (IPTG) for 16 h at 26 °C. The cells were centrifuged for 5 min at 9000g and 4 °C and the wet pellet resuspended in lysis buffer (50 mM Tris, pH 7, 300 mM NaCl, 25 mM imidazole, protease inhibitor cocktail, and 1 mg/mL lysozyme). […] The supernatant was sonicated again as previously described for 10 min and loaded on a HisTrap column (GE Healthcare, Chicago, IL) for 16 h at 4 °C using a P-1 peristaltic pump (GE Healthcare, Chicago, IL). Once loaded, the HisTrap column was connected to an ÄKTA purifier UPC 10 (GE Healthcare, Chicago, IL) and washed using a 5–10% gradient between buffer A (50 mM Tris, pH 7 and 300 mM NaCl) and B (50 mM Tris, pH 7, 300 mM NaCl, and 500 mM imidazole). LiTryR was eluted using a 40% gradient between buffers A and B. Fractions containing recombinant LiTryR were pooled and loaded into a HiPrep 26/10 Desalting column (GE Healthcare, Chicago, IL) previously equilibrated with buffer A. Finally, LiTryR was concentrated to 2 mg/mL using an Amicon Ultra-15 50K (Merck Millipore, Burlington, MA) and an equal volume of glycerol was added before storing at −20 °C.
as §3, §4

Row | Compound | EC50 [1] | EC50 ([2]; read-out: EC50 intracellular amastigotes, amastigote-infected THP-1 macrophages, 72 h) | IC50 (TbTryR) | IC50 (TcoTryR) | EC50 [3] | EC50 [4] | EC50 (HepG2 cells) | IC50 (LiTryR dimer) | IC50 (LiTryR) | melting point | EC50 ([2]; amastigote-infected THP-1 macrophages, 72 h, read-out: EC50 intracellular amastigotes) | SIp (ratio of EC50 against human cells to EC50 against promastigotes) ([3]; HepG2 / promastigotes) | SIa (ratio of EC50 against human cells to EC50 against amastigotes) ([4]; HepG2 / axenic amastigotes)
1 | NCCCCc1cn(-c2ccc(-c3nc(CCc4ccccc4)cs3)c(OCCN3CCNC3=O)c2)nn1 [12a, 1-(2-(5-(4-(4-Ammoniumbutyl)-1H-1,2,3-triazol-1-yl)-2-(4-phenethylthiazol-2-yl)phenoxy)ethyl)imidazolidin-2-one 2,2,2-Trifluoroacetate] | 45 ± 3.1 µM | 32.4 ± 6.7 µM | 13.3 ± 1.9 µM | 11 ± 1.3 µM | 16.4 ± 0.9 µM | 13.9 ± 0.6 µM | 20.3 ± 2.4 µM |  |  |  |  |  | 
2 | O=C(O)CCCc1cn(-c2ccc(-c3nc(CCc4ccccc4)cs3)c(OCCN3CCNC3=O)c2)nn1 [12g] |  |  |  |  |  |  |  | > 75 µM | > 75 µM | 174.5 to 177.5 °C |  |  | 
3 | CCCCCCCCCCCCCCCCOP(=O)([O-])OCC[N+](C)(C)C [miltefosine, reference compound] | > 25 µM |  |  |  | 47.6 ± 0.6 µM | 2 ± 0.1 µM | > 75 µM |  |  |  | 0.6 ± 0.1 µM | > 1.6 | > 37.5
